Measured values as given in publication PMC9977398, “Next-generation membrane-active glycopeptide antibiotics that also inhibit bacterial cell division” (Chemical Science, 2023).
Converted amounts (≈) assume the structure as drawn. Read-outs that look alike come from different tables or passages of the source.

Assays:
[1] = system: AB 1425 (A. baumannii MTCC 1425); test: MIC determination, micro-dilution broth; type: cell-based; settings: Acinetobacter baumannii, MTCC1425; read-out: Minimum inhibitory concentration, AB 1425
Procedure: (§1) The increase in the carbon content of substituted moieties from six (1) to seven (2 and 3) to ten (5) to twelve (4), increased activity. […]
(§2) Test compound was assayed in a micro -dilution broth format as per the CLSI guideline. The bacterial freeze dried stock samples were stored at -80 °C. About 5 μL of these stocks were added to 3 mL of the respective broth and the culture was grown for 6 h at 37°C with prior to the experiments. This 6 h grown culture was diluted to give effective cell concentration of 10 5 CFU/mL which was then used for determining MIC. Compounds were serially diluted 2 -fold, in sterile millipore water and 50 μL of these serial dilutions were added to the wells of 96 well plate followed by the addition of about 150 μL of bacterial solution. The plates were then incubated for 18-24 h at 37 °C. The O.D. value at 600 nm was recorded using TECAN (Infinite series, M200 pro) Plate Reade r. Each concentration had triplicate values and the whole experiment was done at least twice and the MIC value was determined by taking the average of triplicate O. D. values for each concentration and plotting it against concentration. The data was then subjected to sigmoidal fitting. From the curve the MIC value was determined, as the point where the O. D. was similar to that of control having no bacteria.

AB R674 (A. baumannii) = test: MIC determination, micro-dilution broth; type: cell-based; settings: Acinetobacter baumannii; read-out: Minimum inhibitory concentration, AB R674
Procedure: as §1, §2

[2] = system: MRSA, methicillin-resistant S. aureus (ATCC 33591); test: MIC determination, micro-dilution broth; type: cell-based; settings: Staphylococcus aureus; MRSA ATCC 33591; read-out: Minimum inhibitory concentration, MRSA
Procedure: as §1, §2

[3] = system: PA R590 (MDR strain of P. aeruginosa); test: MIC determination, micro-dilution broth; type: cell-based; settings: Pseudomonas aeruginosa; read-out: Minimum inhibitory concentration, PA R590
Procedure: as §1, §2

[4] = system: VRE 51559 (vancomycin-resistant E. faecium, VanA phenotype, ATCC 51559); test: MIC determination, micro-dilution broth; type: cell-based; settings: Enterococcus; read-out: Minimum inhibitory concentration, VRE 51559
Procedure: as §1, §2

[5] = system: VRE 51575 (vancomycin-resistant E. faecalis, VanB phenotype, ATCC 51575); test: MIC determination, micro-dilution broth; type: cell-based; settings: Enterococcus; read-out: Minimum inhibitory concentration, VRE 51575
Procedure: as §1, §2

[6] = system: VRSA 1 (vancomycin-resistant S. aureus); test: MIC determination, micro-dilution broth; type: cell-based; settings: Staphylococcus aureus, read-out: Minimum inhibitory concentration, VRSA 1
Procedure: as §1, §2

[7] = system: VRSA 12 (vancomycin-resistant S. aureus); test: MIC determination, micro-dilution broth; type: cell-based; settings: Staphylococcus aureus, read-out: Minimum inhibitory concentration, VRSA 12
Procedure: as §1, §2

[8] = system: VRSA 4 (vancomycin-resistant S. aureus); test: MIC determination, micro-dilution broth; type: cell-based; settings: Staphylococcus aureus, read-out: Minimum inhibitory concentration, VRSA 4
Procedure: as §1, §2

human erythrocytes = test: Haemolysis assay; type: cell-based
Procedure: To select the lead compounds, the toxicity of 1–10 was tested against human erythrocytes as their hemolytic activity (HC50). The HC50 is determined as the concentration at which 50% of the compound treated cells are lysed. […] The HC50 for compounds 6–8 was also greater than 500 μM. […] Based on the in vitro activity and hemolysis studies, VanQbiph (4) from the aryl-substituted compounds and VanQAmC10 (8) from the alkyl-chain substituted compounds were selected for further investigations. […] VanQAmC10 (8) was additionally non-toxic to RAW 264.7 cells up to 40 μM and was therefore taken forward in vivo investigation.[18]
50 μL of serially diluted compound was added into 96 well microtiter plates. Freshly drawn, heparanized human blood was centrifuged down to obtain the erythrocytes and re-suspended to 5 vol % in PBS (pH 7.4). 150 μL of the erythrocyte suspension was added to the serially diluted compounds (from 500 µM to 2 µM). One set without compound and other with 50 μL of 1 vol % solution of Triton X-100 were kept as controls. The plates were incubated at 37 °C for 1 h followed by centrifugation at 3,500 rpm for 5 min. 100 μL of the supernatant from each well were transferred into fresh microtiter plates, and A540 was measured.
% haemolysis = (A - A0)/(Atotal -A0) × 100, where A is the absorbance of the test well, A 0 the absorbance of the negative controls (without compound), and A total the absorbance of 100 % hemolysis wells (with Triton X -100), all at 540 nm. […]

VRE (VanA phenotype) = system: VRE (VanA phenotype); design: method as in PMID 27663982, PMID 24846441, PMID 14972384; settings: cited from earlier work

| Structure (SMILES) | MIC [1] | MIC (AB R674 (A. baumannii)) | MIC [2] | MIC [3] | MIC [4] | MIC [5] | MIC [6] | MIC [7] | MIC [8] | HC50 (human erythrocytes) | HC50 (human erythrocytes; human, 1 h, pH 7.4) | MIC against VRE (VanA phenotype) (VRE (VanA phenotype)) |
| --- | --- | --- | --- | --- | --- | --- | --- | --- | --- | --- | --- | --- |
| CCCCCCCCCCNCCN[C@@]1(C)C[C@H](O[C@H]2[C@H](Oc3c4cc5cc3Oc3ccc(cc3Cl)[C@@H](O)[C@@H](NC(=O)[C@@H](CC(C)C)NC)C(=O)N[C@@H](CC(N)=O)C(=O)N[C@H]5C(=O)N[C@H]3C(=O)N[C@H](C(=O)N[C@H](C(=O)O)c5cc(O)c(CNCP(=O)(O)O)c(O)c5-c5cc3ccc5O)[C@H](O)c3ccc(c(Cl)c3)O4)O[C@H](CO)[C@@H](O)[C@@H]2O)O[C@@H](C)[C@H]1O [telavancin] | – | – | – | – | – | – | – | – | – | – | – | 4 µM (≈ 7.02 µg/mL) |
| CNC(CC(C)C)C(=O)NC1C(=O)NC(CC(N)=O)C(=O)NC2C(=O)NC3C(=O)NC(C(=O)NC(C(=O)NCCC[N+](C)(C)Cc4ccc(C)cc4)c4cc(O)cc(O)c4-c4cc3ccc4O)C(O)c3ccc(c(Cl)c3)Oc3cc2cc(c3OC2OC(CO)C(O)C(O)C2OC2CC(C)(N)C(O)C(C)O2)Oc2ccc(cc2Cl)C1O (stereo not shown) [VanQtol (2)] | > 30 µM | 25.3 µM | 1 µM | > 30 µM | > 30 µM | > 30 µM | > 30 µM | > 30 µM | 16 µM | – | >500 µM | – |
| CNC(CC(C)C)C(=O)NC1C(=O)NC(CC(N)=O)C(=O)NC2C(=O)NC3C(=O)NC(C(=O)NC(C(=O)NCCC[N+](C)(C)Cc4ccccc4)c4cc(O)cc(O)c4-c4cc3ccc4O)C(O)c3ccc(c(Cl)c3)Oc3cc2cc(c3OC2OC(CO)C(O)C(O)C2OC2CC(C)(N)C(O)C(C)O2)Oc2ccc(cc2Cl)C1O (stereo not shown) [VanQph (1)] | > 30 µM | 25.5 µM | 1 µM | > 30 µM | > 30 µM | > 30 µM | > 30 µM | > 30 µM | > 30 µM | – | >500 µM | – |
| CNC(CC(C)C)C(=O)NC1C(=O)NC(CC(N)=O)C(=O)NC2C(=O)NC3C(=O)NC(C(=O)NC(C(=O)NCCC[N+](C)(C)Cc4cccc5ccccc45)c4cc(O)cc(O)c4-c4cc3ccc4O)C(O)c3ccc(c(Cl)c3)Oc3cc2cc(c3OC2OC(CO)C(O)C(O)C2OC2CC(C)(N)C(O)C(C)O2)Oc2ccc(cc2Cl)C1O (stereo not shown) [VanQnaph (5)] | > 30 µM | 24.8 µM | 1 µM | > 30 µM | 25 µM | 25 µM | > 30 µM | > 30 µM | 3.9 µM | – | >500 µM | – |
| CN[C@H](CC(C)C)C(=O)N[C@H]1C(=O)N[C@@H](CC(N)=O)C(=O)N[C@H]2C(=O)N[C@H]3C(=O)N[C@H](C(=O)N[C@H](C(=O)O)c4cc(O)cc(O)c4-c4cc3ccc4O)[C@H](O[C@H]3C[C@](C)(N)[C@@H](O)[C@H](C)O3)c3ccc(c(Cl)c3)Oc3cc2cc(c3O[C@@H]2O[C@H](CO)[C@@H](O)[C@H](O)[C@H]2O[C@H]2C[C@](C)(NCc3ccc(-c4ccc(Cl)cc4)cc3)[C@@H](O)[C@H](C)O2)Oc2ccc(cc2Cl)[C@H]1O [oritavancin] | – | – | – | – | – | – | – | – | – | – | – | 0.14 µM (≈ 0.251 µg/mL) |
| CN[C@H]1C(=O)N[C@@H]2Cc3ccc(cc3)Oc3cc4cc(c3O[C@@H]3O[C@H](C(=O)O)[C@@H](O)[C@H](O)[C@H]3NC(=O)CCCCCCCCC(C)C)Oc3ccc(cc3Cl)[C@@H](O)[C@@H]3NC(=O)[C@H](NC(=O)[C@@H]4NC(=O)[C@@H](NC2=O)c2cc(cc(O)c2Cl)Oc2cc1ccc2O)c1ccc(O)c(c1)-c1c(O[C@H]2O[C@H](CO)[C@@H](O)[C@H](O)[C@@H]2O)cc(O)cc1[C@@H](C(=O)NCCCN(C)C)NC3=O [dalbavancin] | – | – | – | – | – | – | – | – | – | – | – | 18 µM (≈ 32.7 µg/mL) |

More lines, main results first:

| MIC [1] | MIC (AB R674 (A. baumannii)) | MIC [2] | MIC [3] | MIC [4] | MIC [5] | MIC [6] | MIC [7] | MIC [8] | Structure (SMILES) | HC50 (human erythrocytes) | HC50 (human erythrocytes; human, 1 h, pH 7.4) | MIC against VRE (VanA phenotype) (VRE (VanA phenotype)) |
| --- | --- | --- | --- | --- | --- | --- | --- | --- | --- | --- | --- | --- |
| 6.3 µM | 12.5 µM | 6.25 µM | 6.3 µM | 1.5 µM | 3.1 µM | 3 µM | 3 µM | 1.5 µM | CCCCCCCCCCCCCCNC(=O)C[N+](C)(C)CCCNC(=O)C1NC(=O)C2NC(=O)C(NC(=O)C3NC(=O)C(CC(N)=O)NC(=O)C(NC(=O)C(CC(C)C)NC)C(O)c4ccc(c(Cl)c4)Oc4cc3cc(c4OC3OC(CO)C(O)C(O)C3OC3CC(C)(N)C(O)C(C)O3)Oc3ccc(cc3Cl)C2O)c2ccc(O)c(c2)-c2c(O)cc(O)cc21 (stereo not shown) [VanQAmC14 (10)] | caused hemolysis | 150 µM | – |
| 25 µM | 12.5 µM | 0.8 µM | 12.5 µM | 25 µM | > 30 µM | > 30 µM | > 30 µM | 6.3 µM | CCCCCCNC(=O)C[N+](C)(C)CCCNC(=O)C1NC(=O)C2NC(=O)C(NC(=O)C3NC(=O)C(CC(N)=O)NC(=O)C(NC(=O)C(CC(C)C)NC)C(O)c4ccc(c(Cl)c4)Oc4cc3cc(c4OC3OC(CO)C(O)C(O)C3OC3CC(C)(N)C(O)C(C)O3)Oc3ccc(cc3Cl)C2O)c2ccc(O)c(c2)-c2c(O)cc(O)cc21 (stereo not shown) [VanQAmC6 (6)] | – | >500 µM | – |
| > 30 µM | 24.6 µM | 1 µM | 24.6 µM | > 30 µM | > 30 µM | > 30 µM | > 30 µM | 15.8 µM | CNC(CC(C)C)C(=O)NC1C(=O)NC(CC(N)=O)C(=O)NC2C(=O)NC3C(=O)NC(C(=O)NC(C(=O)NCCC[N+](C)(C)Cc4ccc(C(F)(F)F)cc4)c4cc(O)cc(O)c4-c4cc3ccc4O)C(O)c3ccc(c(Cl)c3)Oc3cc2cc(c3OC2OC(CO)C(O)C(O)C2OC2CC(C)(N)C(O)C(C)O2)Oc2ccc(cc2Cl)C1O (stereo not shown) [VanQphCF3 (3)] | – | >500 µM | – |
| 12.5 µM | 12.5 µM | 0.8 µM | 6.3 µM | 12.5 µM | 25 µM | 3.1 µM | > 30 µM | 3.1 µM | CCCCCCCCNC(=O)C[N+](C)(C)CCCNC(=O)C1NC(=O)C2NC(=O)C(NC(=O)C3NC(=O)C(CC(N)=O)NC(=O)C(NC(=O)C(CC(C)C)NC)C(O)c4ccc(c(Cl)c4)Oc4cc3cc(c4OC3OC(CO)C(O)C(O)C3OC3CC(C)(N)C(O)C(C)O3)Oc3ccc(cc3Cl)C2O)c2ccc(O)c(c2)-c2c(O)cc(O)cc21 (stereo not shown) [VanQAmC8 (7)] | – | >500 µM | – |
| 6.3 µM | 6.3 µM | 3.12 µM | 6.3 µM | 1.5 µM | 3.1 µM | 1.5 µM | 3 µM | 0.7 µM | CCCCCCCCCCCCNC(=O)C[N+](C)(C)CCCNC(=O)C1NC(=O)C2NC(=O)C(NC(=O)C3NC(=O)C(CC(N)=O)NC(=O)C(NC(=O)C(CC(C)C)NC)C(O)c4ccc(c(Cl)c4)Oc4cc3cc(c4OC3OC(CO)C(O)C(O)C3OC3CC(C)(N)C(O)C(C)O3)Oc3ccc(cc3Cl)C2O)c2ccc(O)c(c2)-c2c(O)cc(O)cc21 (stereo not shown) [VanQAmC12 (9)] | caused hemolysis | 350 µM | – |
